Source: ChEMBL document CHEMBL3734667 (Bioorg Med Chem, 2015)

Legend:
[1] = test system: Poliovirus 1; experiment: Antiviral activity against Human poliovirus 1 Sabin infected in african green monkey Vero76 cells assessed as inhibition of virus-induced cytopathogenicity by plaque reduction assay; type: functional, organism-based; details: Enterovirus C, Vero 76
[2] = test system: Bovine viral diarrhea virus 1; experiment: Antiviral activity against BVDV infected in MDBK cells assessed as inhibition of virus-induced cytopathogenicity after 3 to 4 days by MTT assay; type: functional, organism-based; details: Bovine viral diarrhea virus isolates and strains
[3] = Cytotoxicity against human MT4 cells assessed as cell viability after 96 hrs by MTT assay; type: cell-based
[4] = Cytotoxicity against MDBK cells assessed as cell viability after 48 to 96 hrs by MTT assay; type: cell-based, Bos taurus; details: cattle
[5] = test system: Human orthopneumovirus; experiment: Antiviral activity against human RSV infected in african green monkey Vero76 cells assessed as inhibition of virus-induced cytopathogenicity after 5 days by plaque reduction assay; type: functional, organism-based; details: human respiratory syncytial virus, Vero 76, 120 h
[6] = Selectivity index, ratio of CC50 for MDBK cells to EC50 for BVDV; parameters: species or system Bovine viral diarrhea virus 1
[7] = Cytotoxicity against african green monkey Vero 76 cells assessed as cell viability after 48 to 96 hrs by crystal violet staining method; type: cell-based; details: chlorocebus sabaeus
[8] = test system: Vaccinia virus; experiment: Antiviral activity against Vaccinia virus; type: functional, organism-based; details: Orthopoxvirus vaccinia
[9] = test system: Vesicular stomatitis virus; experiment: Antiviral activity against VSV; type: functional, organism-based
[10] = test system: Yellow fever virus; experiment: Antiviral activity against YFV infected in BHK-21 cells assessed as inhibition of virus-induced cytopathogenicity after 3 to 4 days by MTT assay; type: functional, organism-based
[11] = Selectivity index, ratio of CC50 for african green monkey Vero76 cells to EC50 for human RSV; parameters: species or system human respiratory syncytial virus, Vero 76
[12] = test system: Human immunodeficiency virus 1; experiment: Antiviral activity against HIV-1 infected in MT4 cells assessed as inhibition of virus-induced cytopathogenicity after 4 days by MTT assay; type: functional, organism-based; details: Human immunodeficiency virus 1, MT4, 96 h
[13] = test system: Coxsackievirus B5; experiment: Antiviral activity against human CVB5 infected in african green monkey Vero76 cells assessed as inhibition of virus-induced cytopathogenicity after 3 days by plaque reduction assay; type: functional, organism-based; details: Enterovirus B, Vero 76, 72 h
[14] = Cytotoxicity against BHK cells assessed as cell viability after 48 to 96 hrs by MTT assay; type: cell-based, Mesocricetus auratus; details: hamster
[15] = test system: Mammalian orthoreovirus 1; experiment: Antiviral activity against Reo-1 virus infected in BHK-21 cells assessed as inhibition of virus-induced cytopathogenicity after 3 to 4 days by MTT assay; type: functional, cell-based; details: Mammalian orthoreovirus 1, BHK-21
[16] = Selectivity index, ratio of CC50 for african green monkey Vero76 cells to EC50 for human CVB5; parameters: species or system Coxsackievirus B5, Vero 76
[17] = test system: Human alphaherpesvirus 1; experiment: Antiviral activity against HSV1; type: functional, organism-based
[18] = Selectivity index, ratio of CC50 for BHK-21 cells to EC50 for YFV; parameters: species or system Yellow fever virus
[19] = Selectivity index, ratio of CC50 for african green monkey Vero76 cells to EC50 for human Sb-1; parameters: species or system Human poliovirus 1 strain Sabin, Vero 76

SMILES | EC50 [1] | EC50 [2] | CC50 at 96 h [3] | CC50 [4] | EC50 [5] | Ratio CC50/EC50 [6] | CC50 [7] | EC50 [8] | EC50 [9] | EC50 [10] | Ratio CC50/EC50 [11] | EC50 [12] | EC50 [13] | CC50 [14] | EC50 [15] | Ratio CC50/EC50 [16] | EC50 [17] | Ratio CC50/EC50 [18] | Ratio CC50/EC50 [19]
Cc1ccc2nn(-c3ccc(OC(C)(C)C(=O)O)cc3)nc2c1 | > 100 µM | 90 µM | > 100 µM | > 100 µM | 22 µM | >1.11 | 95 µM | > 100 µM | > 100 µM | > 100 µM | 4.32 | > 100 µM | > 100 µM | > 100 µM |  |  |  |  | 
[O-][n+]1c2cc(C(F)(F)F)ccc2nn1-c1ccc(O)cc1 | > 100 µM | > 100 µM | > 100 µM | 72 µM | 40 µM |  | > 100 µM | > 100 µM | > 100 µM | > 100 µM | >2.5 | > 100 µM | 75 µM | > 100 µM | > 100 µM | >1.33 |  |  | 
CC(=O)Nc1ccc(-n2nc3ccccc3n2)cc1 | > 100 µM | 70 µM | 66 µM | 100 µM | > 100 µM | 1.43 | > 100 µM | > 100 µM | > 100 µM | > 100 µM |  | > 100 µM | 40 µM | > 100 µM | 83 µM | >2.5 |  |  | 
CC(CC(=O)O)n1nc2c(Cl)c(Cl)c(Cl)c(Cl)c2n1 (centres undefined) |  | 49 µM | > 100 µM | 70 µM | 8 µM | 1.43 | 25 µM | > 100 µM | > 100 µM | > 100 µM | 3.12 | > 100 µM | 25 µM | 33 µM |  |  |  |  | 
O=c1cnn([C@@H]2O[C@H](CO)[C@@H](O)[C@H]2O)c(=O)[nH]1 [6-AZAURIDINE] | > 100 µM | > 100 µM |  | > 100 µM | 1.2 µM |  |  | 11 µM | > 100 µM |  | 16.7 |  | > 100 µM | > 100 µM | > 100 µM |  | > 100 µM | >3.8 | 
COc1ccccc1N1CCN(CCCOc2ccc(-n3nc4ccc(C(F)(F)F)cc4n3)cc2)CC1 | > 100 µM | > 100 µM | 100 µM | > 100 µM | > 100 µM |  | 100 µM | > 100 µM | > 100 µM | > 100 µM |  | > 100 µM | 53 µM | > 100 µM | > 100 µM | 1.89 |  |  | 
Clc1cc2nnn(C3CCCCO3)c2cc1Cl (centres undefined) | 60 µM | > 100 µM | > 100 µM | > 100 µM |  |  | ≥ 100 µM |  | > 100 µM | > 100 µM |  | > 100 µM |  | > 100 µM | > 100 µM |  | > 100 µM |  | 1.67
FC(F)(F)c1ccc2c(c1)nnn2C[C@@H]1CCCN2CCCC[C@H]12 | > 100 µM | > 100 µM | > 100 µM | > 100 µM | 90 µM |  | > 100 µM | > 100 µM | > 100 µM | 27 µM | >1.11 | > 100 µM | 38 µM | > 100 µM | > 100 µM | >2.63 | > 100 µM | >3.7 | 
CC(C)(COc1ccc(-n2nc3ccc(Cl)cc3n2)cc1)C(=O)O | > 100 µM | 21 µM | 94 µM | 52 µM | 12 µM | 2.47 | 40 µM | > 100 µM | > 100 µM | > 100 µM | 3.33 | > 100 µM | 1.7 µM | 47 µM |  | 23.53 |  |  | 
CC(C)(Oc1ccc(-n2nc3ccc(Cl)cc3n2)cc1)C(=O)O | > 100 µM | > 100 µM | > 100 µM | ≥ 100 µM | 25 µM |  | 70 µM | > 100 µM | > 100 µM | > 100 µM | 2.8 | > 100 µM | > 100 µM | 75 µM |  |  |  |  | 
CC(C)(Oc1ccc(-n2nc3ccccc3n2)cc1)C(=O)O | > 100 µM | > 100 µM | > 100 µM | > 100 µM | 80 µM |  | ≥ 100 µM | > 100 µM | > 100 µM | > 100 µM | 1.25 | > 100 µM | > 100 µM | > 100 µM |  |  |  |  | 
COc1ccc2nn(-c3ccc(OCCCC(C)(C)C(=O)O)cc3)nc2c1 | > 100 µM | 44 µM | 28 µM | > 100 µM | > 100 µM | 2.27 | 20 µM | > 100 µM | > 100 µM | > 100 µM |  | > 100 µM | 2 µM | 50 µM |  | 10 |  |  | 
Clc1c(Cl)c(Cl)c2nn(C3CCCO3)nc2c1Cl (centres undefined) | > 100 µM | 12 µM | > 100 µM | ≥ 100 µM |  | 8.33 | 12 µM |  | > 100 µM | > 100 µM |  | > 100 µM |  | 30 µM | > 100 µM |  | > 100 µM |  | 
CC(C)(CCCOc1ccc(-n2nc3ccc(Cl)cc3n2)cc1)C(=O)O | > 100 µM | > 100 µM | 51 µM | 32 µM | 2 µM |  | 15 µM | > 100 µM | > 100 µM | > 100 µM | 7.5 | > 100 µM | 0.7 µM | 16 µM |  | 31.43 |  |  | 
CN(C)c1cccc(C(=O)OCCCn2nc3ccccc3n2)c1 |  | > 100 µM | > 100 µM | > 100 µM | > 100 µM |  | > 100 µM | > 100 µM | > 100 µM | > 100 µM |  | > 100 µM | 73 µM | > 100 µM |  | >1.37 |  |  | 
Cc1ccc(C)c(OCCCC(C)(C)C(=O)O)c1 [GEMFIBROZIL] | > 100 µM | 90 µM | > 100 µM | > 100 µM | > 100 µM | >1.11 | > 100 µM |  |  | > 100 µM |  |  | > 100 µM | > 100 µM |  |  |  |  | 
Cc1ccc2nn(-c3ccc(OCC(C)(C)C(=O)O)cc3)nc2c1 | > 100 µM | > 100 µM | ≥ 100 µM | 69 µM | 15 µM |  | 60 µM | > 100 µM | > 100 µM | > 100 µM | 4 | > 100 µM | 5 µM | ≥ 100 µM |  | 12 |  |  | 
Oc1ccc(-n2nc3ccccc3n2)cc1 | 7 µM | 17 µM | > 100 µM | ≥ 100 µM |  | >5.88 | 90 µM | > 100 µM | > 100 µM | ≥ 83 µM |  | > 100 µM | > 100 µM | 83 µM |  |  |  |  | 12.86
COc1c(C)c2c(c(O)c1C/C=C(\C)CCC(=O)O)C(=O)OC2 [MYCOPHENOLIC ACID] | > 100 µM | > 100 µM |  |  | 0.6 µM |  |  | 2 µM |  | > 100 µM | 33.3 |  | > 100 µM | > 100 µM | > 100 µM |  | > 100 µM |  | 
Nc1ccc(-n2nc3ccccc3n2)cc1 | > 100 µM | 35 µM | ≥ 100 µM | 100 µM | > 100 µM | 2.86 | > 100 µM | > 100 µM | > 100 µM | 75 µM |  | > 100 µM | > 100 µM | 100 µM | 90 µM |  |  | 1.33 | 
NC(=O)c1ncn([C@@H]2O[C@H](CO)[C@@H](O)[C@H]2O)n1 [RIBAVIRIN] | > 100 µM |  |  | > 100 µM | 7 µM |  | > 100 µM | > 100 µM | > 100 µM | > 100 µM | >14.3 |  | > 100 µM | > 100 µM | > 100 µM |  | > 100 µM |  | 
